In PubChem BioAssay AID1033 (Sanford-Burnham Center for Chemical Genomics, 2008):
Activity calls are given as the source filed them. How the calls were made is not given here.

Target: Chaperone protein DnaK (Escherichia coli (strain K12)) (UniProt P0A6Y8)
Assay: binders of DnaK substrate-binding domain, biophysical, NMR, chaperone (AID 1033)
Conditions: Purified DnaK SBD, NMR ligand binding

Chain of Chaperone protein DnaK (Escherichia coli (strain K12)) (P0A6Y8 whole entry, looked up, the tested form may be a part): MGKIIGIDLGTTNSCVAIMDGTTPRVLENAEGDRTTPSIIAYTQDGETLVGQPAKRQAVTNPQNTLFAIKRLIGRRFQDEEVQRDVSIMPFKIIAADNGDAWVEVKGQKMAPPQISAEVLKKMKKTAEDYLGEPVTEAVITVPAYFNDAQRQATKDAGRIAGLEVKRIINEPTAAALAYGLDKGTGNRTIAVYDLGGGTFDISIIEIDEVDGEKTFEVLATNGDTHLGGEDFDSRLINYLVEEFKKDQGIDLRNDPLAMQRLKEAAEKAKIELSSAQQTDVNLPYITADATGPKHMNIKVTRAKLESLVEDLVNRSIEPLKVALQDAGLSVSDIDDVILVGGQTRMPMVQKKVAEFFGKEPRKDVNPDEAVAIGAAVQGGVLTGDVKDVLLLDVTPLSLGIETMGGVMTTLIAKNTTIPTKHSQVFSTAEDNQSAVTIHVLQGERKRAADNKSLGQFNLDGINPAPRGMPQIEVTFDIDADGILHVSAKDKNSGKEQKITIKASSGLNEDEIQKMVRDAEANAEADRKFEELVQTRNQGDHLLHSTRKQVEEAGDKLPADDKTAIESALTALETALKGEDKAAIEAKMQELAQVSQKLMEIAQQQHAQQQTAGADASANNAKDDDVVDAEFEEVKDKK

Row | SMILES | Kd
1 | O=C1NC(=O)C2C3C=CC(O3)C12 (stereo not drawn) | > 4 mM (inactive)
2 | COc1cc(O)c2c(c1)C(=O)c1cc(C)cc(O)c1C2=O | > 4 mM (inactive)
3 | Cc1cc(C(=O)NCc2cccs2)cs1 | > 4 mM (inactive)
4 | Cn1c(=O)n(C)c2nc([N+](=O)[O-])c(Cl)cc21 | > 4 mM (inactive)
5 | COC(=O)C[C@H]1C(C)(C)C(=O)[C@@H]2CC3C4=CC(=O)O[C@@H](c5ccoc5)[C@]4(C)CCC3C1(C)C2=O (stereo partly drawn) | > 4 mM (inactive)
6 | COc1cc([C@H]2Oc3cc([C@H]4Oc5cc(O)cc(O)c5C(=O)[C@@H]4O)ccc3O[C@@H]2CO)ccc1O | > 4 mM (inactive)
7 | CCOC(=O)N1CCN(c2ncnc3c2cnn3C)CC1 | > 4 mM (inactive)
8 | Cc1cc(C)n2nc(NCc3ccccc3)nc2n1 | > 4 mM (inactive)
9 | CCNC(=S)NS(=O)(=O)c1ccccc1 | > 4 mM (inactive)
10 | Cc1cc(C)n(CCCC(=O)O)n1 | > 4 mM (inactive)
11 | O=C(c1cnsn1)N1CCN(c2ccccn2)CC1 | > 4 mM (inactive)
12 | CC(C)n1c(Nn2cnnc2)nc2ccccc21 | > 4 mM (inactive)
13 | OCC1Cc2ccccc2N1 (stereo not drawn) | > 4 mM (inactive)
14 | NC(=O)c1ccsc1NC(=O)c1ccccc1[N+](=O)[O-] | > 4 mM (inactive)
15 | COc1cccc(-c2nc(-c3ccccn3)no2)c1OC | > 4 mM (inactive)
16 | C/C=C1\[C@H]2C=C(C)C[C@]1(N)c1ccc(=O)[nH]c1C2 | > 4 mM (inactive)
17 | CC(=O)Nc1ccc(-c2ccc3nncn3n2)cc1 | > 4 mM (inactive)
18 | O=C1Nc2ccccc2C12OCCO2 | > 4 mM (inactive)
19 | Cn1c(SCC(=O)NCCO)nc2ccccc2c1=O | > 4 mM (inactive)
20 | CCOC(=O)C1CCNCC1 | > 4 mM (inactive)

Row | SMILES | Kd
21 | [O-][n+]1onc2c1CCc1c-2nc(-c2ccccc2)n1O | > 4 mM (inactive)
22 | ON=c1ccc2nc3ccccc3nc2cc1 | > 4 mM (inactive)
23 | COc1cc(OC)c2c(=O)c(OC)c(-c3ccc(OC)c(OC)c3)oc2c1 | > 4 mM (inactive)
24 | O=S(=O)(Nc1cccc2cn[nH]c12)c1ccc(F)cc1 | > 4 mM (inactive)
25 | COc1ccc(-c2cc(=O)c3c(O)c(OC)c(O[C@H]4O[C@H](CO[C@@H]5O[C@@H](C)[C@H](O)[C@@H](O)[C@H]5O)[C@@H](O)[C@H](O)[C@H]4O)cc3o2)cc1 | > 4 mM (inactive)
26 | COC(=O)c1cccc(N)c1 | > 4 mM (inactive)
27 | CN1C(=O)c2ccc(N3CCCC3)cc2C1=O | > 4 mM (inactive)
28 | CCOC(=O)c1c(C)nc2cc(C)ccn12 | > 4 mM (inactive)
29 | O=C1CSC(=S)N1Cc1cccnc1 | > 4 mM (inactive)
30 | Nc1ccc2c(c1)COc1ccccc1O2 | > 4 mM (inactive)
31 | COc1c(O)cc2oc3cc(O)c(CC=C(C)C)c(O)c3c(=O)c2c1CC=C(C)C | > 4 mM (inactive)
32 | O=C(Nc1nccs1)c1cccnc1 | > 4 mM (inactive)
33 | COc1ccc(-c2cc(=O)c3c(OC)c(OC)c(OC)c(OC)c3o2)cc1 | > 4 mM (inactive)
34 | COc1ccc(CN2CCC(O)CC2)c(O)c1 | > 4 mM (inactive)
35 | CC(=O)Nc1ccc(CN2CCOCC2)cc1 | > 4 mM (inactive)
36 | O=c1[nH]cnc2c1nnn2Cc1ccccc1 | > 4 mM (inactive)
37 | CC(C)CCn1cnc2c1c(=O)n(C)c(=O)n2C | > 4 mM (inactive)
38 | NC(=O)c1ccccc1NC(=O)C1CC1 | > 4 mM (inactive)
39 | CC(=O)NC(O)C(=O)c1ccccc1 (stereo not drawn) | > 4 mM (inactive)
40 | CC(=O)Nc1cc2c(cc1C(=O)C(C)C)OCCO2 | > 4 mM (inactive)

Row | SMILES | Kd
41 | CCn1cnc2sc(C(=O)O)c(C)c2c1=O | > 4 mM (inactive)
42 | O=c1[nH]c2c(c(=O)n1C1CCCCC1)CCC2 | > 4 mM (inactive)
43 | O=[n+]1c(CO)c(CO)n([O-])c2ccccc21 | > 4 mM (inactive)
44 | Cc1ccc(-n2[nH]c(C)cc2=O)cc1 | > 4 mM (inactive)
45 | Cc1cc(C)nc(/N=C(\N)N2CCc3ccccc32)n1 | > 4 mM (inactive)
46 | COc1ccc2c(c1)OC[C@@H](Cc1ccc(OC)c(OC)c1)[C@H]2O | > 4 mM (inactive)
47 | Cc1nnc(C)n1/N=C/c1cccs1 | > 4 mM (inactive)
48 | NCc1ccccc1N1CCCCC1 | > 4 mM (inactive)
49 | Nc1ccn(C2O[C@H](CO)[C@@H](O)[C@H]2O)c(=O)n1 (stereo partly drawn) | > 4 mM (inactive)
50 | COc1ccc2c(c1OC)OC[C@@H](c1ccc(OC)c(OC)c1OC)C2 | > 4 mM (inactive)
51 | Cc1onc(-c2ccccc2)c1C(=O)O | > 4 mM (inactive)
52 | C=CCCCCCCCCCCCC(O)CC(O)COC(C)=O (stereo not drawn) (tested in a mixture with another compound) | > 4 mM (inactive)
53 | NC1CS(=O)(=O)CC1O (stereo not drawn) | > 4 mM (inactive)
54 | COC(=O)c1[nH]c2ccccc2c1C(=O)OC | > 4 mM (inactive)
55 | Nc1ccnc(C(=O)O)c1 | > 4 mM (inactive)
56 | O=C(/C=C/c1ccc(O)cc1)c1ccc(O)cc1O | > 4 mM (inactive)
57 | CC(=O)O[C@]1(C)CC[C@@]23CC1C(C)(C)[C@@H]2CC[C@H]3C | > 4 mM (inactive)
58 | Cc1sc(N)c(C(N)=O)c1C | > 4 mM (inactive)
